Assays:
Assay type in all cases: toxicity, cell-based
HEK-293T = assay: Incucyte cell viability with HEK293T; conditions: human, 10 µM, compound concentration 10 uM
Fibroblast = assay: Incucyte cell viability with human fibroblast; conditions: 10 µM, compound concentration 10 uM
U2OS = assay: Incucyte cell viability with U2OS; conditions: human, 10 µM, compound concentration 10 uM
Further: unitless GR value; below 1 slowed growth and below 0 cell loss.

SMILES | Growth Rate (HEK-293T; 0 h, replicate number 1) | Growth Rate (HEK-293T; 6 h, replicate number 2) | Growth Rate (Fibroblast; 0 h, replicate number 1) | Growth Rate (Fibroblast; 18 h, replicate number 2) | Growth Rate (Fibroblast; 24 h, replicate number 1) | Growth Rate (U2OS; 6 h, replicate number 1) | Growth Rate (U2OS; 12 h, replicate number 1) | Growth Rate (U2OS; 18 h, replicate number 1) | Growth Rate (U2OS; 24 h, replicate number 1) | Growth Rate (Fibroblast; 0 h, replicate number 2) | Growth Rate (Fibroblast; 18 h, replicate number 1) | Growth Rate (Fibroblast; 24 h, replicate number 2) | Growth Rate (U2OS; 0 h, replicate number 1) | Growth Rate (U2OS; 0 h, replicate number 2) | Growth Rate (HEK-293T; 12 h, replicate number 2) | Growth Rate (HEK-293T; 24 h, replicate number 2) | Growth Rate (U2OS; 18 h, replicate number 2) | Growth Rate (HEK-293T; 0 h, replicate number 2) | Growth Rate (Fibroblast; 6 h, replicate number 1) | Growth Rate (Fibroblast; 12 h, replicate number 2) | further results
CC(C)[C@@H]1CC[C@@H](C)C[C@@H]1P(=O)(c1ccccc1)c1ccccc1 | 0.49 | 0.56 | 0.25 | 0.92 | 0.9 | 0.44 | 0.44 | 0.78 | 0.74 |  |  |  |  |  |  |  |  |  |  |  | Growth Rate (U2OS; 12 h, replicate number 2): 0.96; Growth Rate (U2OS; 24 h, replicate number 2): 1
COc1ccc(CC(=O)NCc2ccccc2-c2ccccc2C(=O)NCc2ccc(F)cc2F)cc1 | 0.52 |  |  | 0.88 |  |  |  |  | 0.89 | -0.36 | 0.19 | 0.91 | -0.79 | -0.96 |  |  |  |  |  |  | 
O=c1cc(-c2cc(F)c(Cl)nc2Cl)[nH]c2c(-c3ccccc3)c(C(F)(F)F)nn12 | 0.89 | 0.52 | -0.22 |  | 0.39 | 0.78 |  |  |  |  | 0.57 | 1 |  |  | 0.74 | 0.94 | -0.41 |  |  |  | Growth Rate (HEK-293T; 18 h, replicate number 1): 0.93; Growth Rate (HEK-293T; 18 h, replicate number 2): 0.98; Growth Rate (HEK-293T; 24 h, replicate number 1): 0.8; Growth Rate (Fibroblast; 12 h, replicate number 1): -0.36
O=S1(=O)NCN(C2CC2)c2ccc(F)cc21 | 0.98 | 0.62 | 0.5 |  | 0.6 | 0.68 |  | 0.99 | 0.9 | 0.39 | -0.11 | 0.91 | 0.05 |  |  |  | 0.88 | 0.78 |  |  | Growth Rate (U2OS; 6 h, replicate number 2): 0.82; Growth Rate (U2OS; 24 h, replicate number 2): 0.93
O=C(O)c1ccc(S(=O)(=O)N(Cc2ccc(OC(F)(F)F)cc2)c2ncc(C(F)(F)F)cc2Cl)cc1 | 0.66 | 0.33 | 0.4 |  | 0.93 |  |  |  |  | -0.5 | 0.16 |  |  |  | 0.79 | 0.93 | 0.93 |  | 0.15 |  | Growth Rate (HEK-293T; 18 h, replicate number 2): 0.81; Growth Rate (U2OS; 6 h, replicate number 2): 0.99; Growth Rate (U2OS; 12 h, replicate number 2): 0.75; Growth Rate (U2OS; 24 h, replicate number 2): 0.85
Nc1nc2cc(-c3cc(Cl)ccc3Oc3cc(F)c(S(=O)(=O)Nc4ncns4)cc3F)ccc2[nH]1 | 0.66 |  |  |  | 0.45 | 0.51 | 0.84 | 0.76 | 0.89 | -0.38 |  | 0.9 | -0.72 | 0.2 |  |  |  | 0.52 | -0.93 |  | 
COc1cc(Nc2ccc([N+](=O)[O-])cc2C(=O)O)cc2ccccc12 | 0.41 |  |  | 0.45 | 0.68 |  |  |  | 0.98 |  | -0.31 | 0.63 | 0.77 | -0.1 |  |  |  | 0.13 |  | 0.4 | Growth Rate (Fibroblast; 6 h, replicate number 2): -0.6
O=c1ccc2c(OCCCCOc3ccccc3)c3ccoc3cc2o1 | 0.49 |  |  |  | 0.92 | 0.73 |  | 0.99 | 0.92 |  |  |  | 0.26 |  |  |  |  | 0.37 |  | 0.95 | Growth Rate (U2OS; 6 h, replicate number 2): 0.99
CN1C2CCCC1CC(Nc1ccccc1Br)C2 (stereo unspecified) | 0.87 | 0.99 | 0.86 | 0.95 |  |  |  |  |  | 0.67 |  | 0.92 |  | -0.9 |  | 0.99 |  |  | -0.98 | 0.88 | Growth Rate (Fibroblast; 6 h, replicate number 2): -0.45; Growth Rate (Fibroblast; 12 h, replicate number 1): 0.42
COc1ccc(-n2nc3c4ccccc4[nH]cc-3c2=O)cc1 | 0.6 | 0.53 |  | 0.91 |  | 0.7 | 0.89 |  |  | 0.74 |  |  | -0.37 | -0.98 | 1 |  |  |  | -0.1 | 0.81 | 
CCOC(=O)c1ncn2c1[C@@H]1CCCN1C(=O)c1cc(OC)ccc1-2 | 0.49 |  | 0.48 |  | 0.63 | 0.4 | 0.92 | 0.9 | 0.81 | -0.85 | 0.09 |  | -0.46 | -0.82 | 0.89 | 0.95 |  | 1 | 0.02 |  | Growth Rate (HEK-293T; 18 h, replicate number 1): 0.83; Growth Rate (HEK-293T; 24 h, replicate number 1): 0.82; Growth Rate (Fibroblast; 6 h, replicate number 2): 0.2
Cc1cccc([C@H]2CC[C@@H](N3CCN(c4cccnc4)CC3)CC2)c1.O=C(O)C(F)(F)F.O=C(O)C(F)(F)F | 0.98 | 0.45 |  |  | 0.58 |  | 1 | 0.97 | 0.93 | -0.88 |  | 0.94 |  | -0.63 | 0.66 | 0.79 |  |  | -0.37 |  | Growth Rate (HEK-293T; 18 h, replicate number 2): 0.73; Growth Rate (Fibroblast; 6 h, replicate number 2): -0.32
Cl.Clc1ccc(OC[C@H]2CCN2)cn1 | 0.45 | 0.93 |  | 0.83 |  | -0.1 | 0.58 | 0.72 | 0.76 |  |  |  | -0.28 |  | 0.94 |  | 0.97 |  | -0.66 | 0.34 | Growth Rate (HEK-293T; 6 h, replicate number 1): 0.64; Growth Rate (HEK-293T; 18 h, replicate number 1): 0.8; Growth Rate (HEK-293T; 24 h, replicate number 1): 0.83; Growth Rate (Fibroblast; 6 h, replicate number 2): -0.05; Growth Rate (U2OS; 6 h, replicate number 2): 0.54; Growth Rate (U2OS; 24 h, replicate number 2): 0.97
Cl.c1ccc2c(c1)CCC[C@H]2Nc1nc2ccccc2[nH]1 | 0.86 |  | 0.94 | 0.87 | 0.48 |  |  | 0.9 | 0.98 | 0.4 | 0.44 |  | 0.01 |  |  |  | 0.95 | 0.46 |  | 0.56 | Growth Rate (HEK-293T; 6 h, replicate number 1): 0.77; Growth Rate (U2OS; 6 h, replicate number 2): 0.97
